Here are results for 1 compound from patent publication US20170156335A1, “SYSTEMS AND METHODS FOR RELEASING CHLORINE DIOXIDE” (priority 2014, published 2017).

The assay has as its system Raoultella (Klebsiella) terrigena (R. terrigena, ATCC 33257). As to the kind of experiment: Anti-microbial activity test (AMA) in water bottles vs Raoultella terrigena. It is filed as cell-based. The conditions noted are these: AWT018; without SC.

For the compound `CCOC(C)=O` [EtOAc, Ethyl acetate], the “antimicrobial potential of formulation additives” value is listed as “no antimicrobial potential”.
